Results taken from patent US5188642A, “Glyphosate-resistant plants” (priority 1990, dated 1993).

Legend:
transgenic canola lines [1] = experiment: Glyphosate spray test, reproductive scores of transgenic canola (Example 20); format: in vivo, Brassica napus; conditions: 0.28 Kg/ha, 28 days after spraying; lines with A. thaliana meristematic promoter (pMON992) versus enhanced CaMV35S promoter only (pMON987); FIG. 11
Description: The transgenic, differentiated plants obtained containing the variant EPSP synthase gene as described above were analyzed for resistance to glyphosate. The transgenic plants containing the Arabidopsis EPSP synthase gene (as described) directed by the Arabidopsis thaliana promoter as also described above contained pMON992 while those plants containing the Arabidopsis EPSP synthase gene driven only by the enhanced CaMV35S promoter contained pMON987. These transgenic plants were planted and the seed from the R° plants harvested, threshed and dried before planting for a glyphosate spray test. The progeny were planted in 4-inch square pots of Metro 350 and three types of slow release fertilizers. A goal of twenty seedlings from each R° plant is desirable for testing. Germination frequency is usually high but overplanting ensures that twenty seedlings are present. The plants were thinned down by selecting the twenty most vigorous and erect seedlings seven to ten days after planting. A negative control (non-transformed, "Westar" variety) was planted at the same time to maintain quality and display the results. The plants were maintained and grown in a greenhouse environment. A sixteen-hour photoperiod and a temperature of 21° C. (day) and 15° C. (night) was maintained. Water soluble Peters Pete Lite fertilizer with an analysis of 20-19-18 was applied once per week or as needed. […]

tobacco leaf fragments = experiment: Tobacco leaf callus assay on glyphosate; format: cell-based, tobacco (Samsun variety); conditions: 0.5 mM glyphosate, 10 days
Description: Transformed tobacco plants (Samsun variety) were produced and grown by the method described in Example 4, substituting transformed tobacco leaf disks for transformed petunia leaf disks.
Tobacco plants were tested for glyphosate resistance using the method described for tomato plants in Example 5. Tobacco leaf fragments from plants containing vector alone (pMON200) or the pMON546 chimeric EPSPS gene were incubated on callus medium containing 0.5 mM glyphosate.

petunia plants = experiment: Plant response to glyphosate spraying (petunia plants, track sprayer); format: in vivo; conditions: isopropylamine salt with ionic surfactant
Description: Four individual representative transgenic seedlings were selected, grown and tested in the testing procedure described below, along with four individual non-transformed (wild-type) petunia seedlings.
The plants were grown in a growth medium in a growth chamber at 26° C. with 12 hours of light per day. The plants were fertilized weekly with a soluble fertilizer and watered as needed. The plants were sprayed at a uniform and reproducible delivery rate herbicide by use of an automated track sprayer.
The glyphosate solution used was measured as pounds of glyphosate acid equivalents per acre, mixed as the glyphosate isopropylamine salt, with an ionic surfactant.
Four individual wild-type (non-transformed) petunia plants were selected for use as control plants. Four individual transformed plants containing the pMON546 vector were selected by kanamycin resistance as described in Horsch et al 1985.
The control plants and the transformed plants were sprayed with the isopropylamine salt of glyphosate at the application level listed in Table 2 below; the experimental results obtained are also summarized in Table 2.

transgenic canola lines [2] = experiment: Glyphosate spray test, reproductive scores of transgenic canola (Example 21); format: in vivo
Source text: Transgenic plants containing the Arabidopsis EPSP synthase gene containing a single glycine to alamine mutation at […] 101 driven by either the FMV promoter or the CaMVe35S promoter were obtained and analyzed for resistance to glyphosate. The transgenic plants containing the Arabidopsis EPSP synthase gene (as described above) directed by the FMV promoter contained pMON996, FIG. 12 and FIG. 13, while those plants containing the enhanced CaMVe35S promoter contained pMON899. These transgenic plants were planted and the seed from the Ro plants harvested, threshed and dried before planting for a glyphosate spray test. The progeny were planted in 4-inch square pots of Metro 350 and three types of slow release fertilizers. A goal of twenty seedlings from each Ro plant is desirable for testing. Germination frequency is usually high but overplanting ensures that twenty seedlings are present. The plants were thinned down by selecting the twenty most vigorous and erect seedlings seven to ten days after planting. A negative control (non-transformed, "Westar" variety) was planted at the same time to maintain quality and display the results. The plants were maintained and grown in a greenhouse environment. A sixteen-hour photoperiod and a temperature of 21° C. (day) and 15° C. (night) was maintained. […]

Compound: O=C(O)CNCP(=O)(O)O [glyphosate, N-phosphonomethylglycine]
- reproductive scores (scale 0-10) (transgenic canola lines [1]): higher reproductive scores
- callus growth from leaves (tobacco leaf fragments; control tobacco leaves (pMON200 vector alone)): completely inhibited and showed no signs of callus growth
- glyphosate resistance of leaves (tobacco leaf fragments; leaves from plants transformed with chimeric petunia EPSPS gene (pMON546)): confers glyphosate resistance to tobacco plants
- Visual Appearance (petunia plants; Chimeric EPSPS transformants (pMON546), 0.8 #/acre acid equivalent): healthy and viable
- Visual Appearance (petunia plants; Control (wild-type) petunia plants, 0.4 #/acre acid equivalent): killed
- reproductive scores (scale 0-10) (transgenic canola lines [2]; 0.28 Kg/ha, 28 days after spraying, three of the seven lines with FMV promoter (pMON996) versus CaMVe35S lines (pMON899), FIG. 14): better than any of the scores from lines containing the CaMVe35S promoter (pMON899)
- level of glyphosate tolerance (transgenic canola lines [2]; transgenic lines containing pMON899 (CaMVe35S promoter) used in FIG. 14): highest levels of glyphosate tolerance among 150 lines previously tested
